Laboratory results: PubChem BioAssay (NCI)
Where “and” joins values, the source holds several entries; their conditions need not be identical. Identical values can stand only once.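 1) Cells in 96-well plates. 2) Compound, 48 h, 5 concentrations. 3) Linear interpolation between surrounding doses. 4) Unreached endpoint = highest concentration. At the GI50, growth is halved. Definition used: TGI = concentration required for complete inhibition of growth.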

Key:
Test in all cases: NCI-60 cell line screen, 48 h
CCRF-CEM leukemia = test system: CCRF-CEM leukemia
COLO 205 colon = test system: COLO 205 colon
BT-549 breast = test system: BT-549 breast
UO-31 renal = test system: UO-31 renal
SK-MEL-5 melanoma = test system: SK-MEL-5 melanoma
786-0 renal = test system: 786-0 renal
SF-295 CNS = test system: SF-295 CNS
K-562 leukemia = test system: K-562 leukemia
MALME-3M melanoma = test system: MALME-3M melanoma
MDA-MB-435 = test system: MDA-MB-435

SMILES | GI50 (CCRF-CEM leukemia) | TGI (CCRF-CEM leukemia) | GI50 (COLO 205 colon) | GI50 (BT-549 breast) | TGI (BT-549 breast) | GI50 (UO-31 renal) | GI50 (SK-MEL-5 melanoma) | TGI (SK-MEL-5 melanoma) | GI50 (786-0 renal) | TGI (786-0 renal) | GI50 (SF-295 CNS) | TGI (SF-295 CNS) | GI50 (K-562 leukemia) | TGI (K-562 leukemia) | GI50 (MALME-3M melanoma) | TGI (MALME-3M melanoma) | GI50 (MDA-MB-435) | TGI (MDA-MB-435) | TGI (COLO 205 colon) | TGI (UO-31 renal)
CNC(=O)c1cccc(-c2ccc3c(N4CCOC[C@@H]4C)nc(N4CCOC[C@@H]4C)nc3n2)c1 | 0.177 µM and 0.217 µM and 0.163 µM | > 100 µM | 0.0648 µM and 0.204 µM and 0.142 µM | 0.0436 µM and 0.0953 µM and 0.0614 µM | 1.38 µM and 1.08 µM and 0.648 µM | 0.0278 µM and 0.0604 µM and 0.0328 µM | 0.109 µM and 0.17 µM and 0.176 µM | 0.718 µM and 0.99 µM and 2.87 µM | 0.229 µM and 0.252 µM | > 32.8 µM | 0.0494 µM and 0.123 µM and 0.0336 µM | 0.392 µM and 0.795 µM and 0.22 µM | 0.499 µM and 0.372 µM and 0.445 µM | > 100 µM | 0.0201 µM and 0.0351 µM and < 0.0204 µM | 0.55 µM and 0.524 µM and 0.138 µM | 0.0925 µM and 0.204 µM and 0.147 µM | 1.8 µM and 1.34 µM and 1.27 µM |  | 
S=C(Nc1ccc(Cl)cc1)Nc1ccc(-c2nc3ccccc3[nH]2)cc1 | 4.37 µM | > 63.6 µM | 2.65 µM | 19.1 µM | 53.1 µM | 5.86 µM | 6.37 µM | 23.2 µM | 10.2 µM | 22.8 µM | 0.757 µM | 4.24 µM | 5.2 µM | 31.3 µM | 7.19 µM | 32.1 µM | 9.11 µM | 26.6 µM | > 35.8 µM | > 29.4 µM
CC(C)(O)C1OCC(C2CCC3(C)C4=CCC5C(C)(C)C(O)CCC5(C)C4CCC23C)CC1O (stereo unspecified) |  | > 100 µM |  |  | 24.8 µM |  |  | 27.8 µM |  | 27.3 µM |  | 26.8 µM |  | 17.3 µM |  | 39.5 µM |  | 28.8 µM | 31.5 µM | 41.8 µM
Cn1c(=O)c2[nH]c(CS(=O)(=O)Cc3nc4c([nH]3)c(=O)n(C)c(=O)n4C)nc2n(C)c1=O |  | > 100 µM |  |  | > 100 µM |  |  | > 100 µM |  | > 100 µM |  | > 100 µM |  | > 100 µM |  | > 100 µM |  | > 100 µM | > 100 µM | > 100 µM
CC(=O)OC(C)(C)/C=C/C(=O)[C@](C)(O)[C@H]1[C@H](O)C[C@@]2(C)[C@@H]3CC=C4[C@@H](C[C@H](O)C(=O)C4(C)C)[C@]3(C)C(=O)C[C@]12C |  | 0.423 µM |  |  | 0.0201 µM |  |  | 0.135 µM |  | 14.8 µM |  | 0.0304 µM |  | 16.8 µM |  | 1.55 µM |  | 2.46 µM |  | < 0.0167 µM
C=C1C(=O)OC2CC3(CO3)C3C(O)C(O)CC3(C)CC12 (stereo unspecified) |  | 45.9 µM |  |  | 33.9 µM |  |  | 42 µM |  | > 100 µM |  | > 100 µM |  | > 100 µM |  | 37.5 µM |  | 83.1 µM | 81.2 µM | 
CCN(CC)CCOc1ccc(/C=C2\CC3C4CC=C5C[C@@H](N6CCCC6)CC[C@]5(C)C4CC[C@]3(C)[C@H]2O)cc1OC (stereo partly specified) | 1.14 µM | 4.77 µM | 5.4 µM | 4.7 µM | 19.3 µM | 4.29 µM | 0.336 µM | 1.95 µM | 2.64 µM | 10.1 µM | 3.86 µM | 13.5 µM | 4.49 µM | > 100 µM | 3.68 µM | 9.82 µM | 3.86 µM | 14.5 µM | 23 µM | 16.9 µM
COc1ccc(-c2nc(-c3cn(C)c4ncccc34)cs2)cc1 | > 100 µM | > 100 µM | 29 µM | 68 µM | > 100 µM | > 100 µM | 16.9 µM | > 100 µM | 51.5 µM | > 100 µM | 20.3 µM | > 100 µM | 5.05 µM | > 100 µM | 22.2 µM | > 100 µM | 2.79 µM | > 100 µM | > 100 µM | > 100 µM
O=C(NC(=S)Nc1ccc(Cl)cc1)c1ccccc1 | > 100 µM | > 100 µM | > 100 µM | > 100 µM | > 100 µM | 99 µM | > 100 µM | > 100 µM | > 87.4 µM | > 100 µM | > 65.1 µM | > 100 µM | > 100 µM | > 100 µM | > 100 µM | > 100 µM | > 100 µM | > 100 µM | > 100 µM | > 100 µM
CCOC(CN=c1nc(N(C)C)ss1)OCC |  | 4.33 µM |  |  | 55.5 µM |  |  | > 100 µM |  | 39.7 µM |  | 43.8 µM |  | 11.8 µM |  | 52.9 µM |  | 32.4 µM | 7.28 µM | 63.3 µM
CC1(C)N=C(N)N=C(N)N1c1cc(Cl)ccc1Cl | > 100 µM | > 100 µM | > 100 µM | > 100 µM | > 100 µM | > 100 µM | > 100 µM | > 100 µM | > 100 µM | > 100 µM | > 100 µM | > 100 µM | 55.3 µM | > 100 µM | 59.1 µM | > 100 µM | > 100 µM | > 100 µM | > 100 µM | > 100 µM
C[C@]12CC[C@@H]3c4ccc(O)cc4CC[C@H]3[C@@H]1CC[C@@H]2NS(=O)(=O)Cc1ccc(Cl)cc1 | 2.63 µM | > 100 µM | 1.81 µM | 2.35 µM | 5.74 µM | 1.39 µM | 1.77 µM | 3.45 µM | 2.66 µM | 6.87 µM | 1.72 µM | 3.56 µM | 2.99 µM | 21.3 µM | 2.85 µM | 9.95 µM | 2.78 µM | 9.03 µM | 3.27 µM | 5.13 µM
O=C1C=Cc2ccccc2/C1=C/c1[nH]c(=O)[nH]c1O | 4.01 µM | > 100 µM | 3.59 µM | 6.75 µM | 96.3 µM | 1.78 µM | 2.84 µM | 13 µM | 5.41 µM | 29.5 µM | 3.1 µM | 8.3 µM | 2.85 µM | 34 µM | 4.19 µM | 88.2 µM | 1.76 µM | 4.64 µM | 31.9 µM | 28.5 µM
O=C1OC(=O)C2C1C1(c3ccccc3)C(c3ccccc3)=C(c3ccccc3)C2(c2ccccc2)S1=O (stereo unspecified) | > 100 µM | > 100 µM | > 100 µM | 26.3 µM | > 100 µM | > 100 µM | > 100 µM | > 100 µM | > 100 µM | > 100 µM | > 100 µM | > 100 µM | 78.2 µM | > 100 µM | > 100 µM | > 100 µM | > 100 µM | > 100 µM | > 100 µM | > 100 µM
